Reference: patent US20250228239A1, “MOLECULES HAVING PESTICIDAL UTILITY, AND INTERMEDIATES, COMPOSITIONS, AND PROCESSES, RELATED THERETO” (priority 2024, published 2025)

Experiments:
[1] = tested on: Beet Armyworm (Spodoptera exigua, LAPHEG); test: Bioassays on Beet Armyworm (BAW), 128-well diet tray assay; format: in vivo; settings: Spodoptera exigua; Beet Armyworm; rating class; read-out: BAW
Procedure, shortened: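 Mortality of second-instar larvae (1–5/well) on artificial diet treated with 50 μg/cm^2 compound, read after 5–7 days at 25° C.; values are means of eight wells.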

[2] = tested on: Cabbage Looper (Trichoplusia ni, TRIPNI); test: Bioassays on Cabbage Looper (CL), 128-well diet tray assay; format: in vivo; settings: Trichoplusia ni; Cabbage Looper; rating class; read-out: CL
Procedure, shortened: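 Percent mortality, averaged across eight replicate wells, after second-instar larvae (1–5 per well) fed for five to seven days on diet dosed at 50 μg/cm^2. Compound was applied in acetone-water 90:10 and dried; trays kept vented at 25° C under 14:10 photoperiod.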

Row | SMILES | pest or weed control at 50 µg/cm2 [1] [%] | pest or weed control at 50 µg/cm2 [2] [%]
1 | CN(C(=O)C(F)F)c1c(F)ccc(NC(=O)c2cc(NC(=O)[C@H]3[C@H](c4cc(Cl)cc(Cl)c4)C3(Cl)Cl)ccc2Cl)c1F [F1462, 2-Chloro-5-((1R,3R)-2,2-dichloro-3-(3,5-dichlorophenyl)cyclopropane-1-carboxamido)-N-(3-(2,2-difluoro-N-methylacetamido)-2,4-difluorophenyl)benzamide] | 50 to 100 | 50 to 100
2 | O=C(Nc1ccc(F)c(NC(=O)C(F)(F)C(F)(F)C(F)(F)F)c1F)c1cc(NC(=O)[C@H]2[C@H](c3ccc(Cl)c(Cl)c3)C2(Cl)Cl)ccc1Cl [F1463, 2-Chloro-5-((1R,3R)-2,2-dichloro-3-(3,4-dichlorophenyl)cyclopropane-1-carboxamido)-N-(2,4-difluoro-3-(2,2,3,3,4,4,4-heptafluorobutanamido)phenyl)benzamide] | 50 to 100 | 50 to 100
3 | O=C(Nc1ccc(F)cc1F)c1c(Cl)ccc(NC(=O)[C@H]2[C@H](c3ccc(F)c(Cl)c3)C2(Cl)Cl)c1F [F1464, 6-Chloro-3-((1R,3R)-2,2-dichloro-3-(3-chloro-4-fluorophenyl)cyclopropane-1-carboxamido)-N-(2,4-difluorophenyl)-2-fluorobenzamide] | 50 to 100 | 50 to 100
4 | Cc1cc(NC(=O)[C@H]2[C@H](c3ccc(F)c(C(F)(F)F)c3)C2(Cl)Cl)cc(C(=O)Nc2c(F)ccc(NC(=O)C(F)F)c2F)c1Cl [F1468, 2-Chloro-5-((1R,3R)-2,2-dichloro-3-(4-fluoro-3-(trifluoromethyl)phenyl)cyclopropane-1-carboxamido)-N-(3-(2,2-difluoroacetamido)-2,6-difluorophenyl)-3-methylbenzamide] | 50 to 100 | 50 to 100
5 | Cc1cc(NC(=O)[C@H]2[C@H](c3ccc(F)c(C(F)(F)F)c3)C2(Cl)Cl)cc(C(=O)Nc2c(F)ccc(NC(=O)C(F)(F)F)c2F)c1Cl [F1469, 2-Chloro-5-((1R,3R)-2,2-dichloro-3-(4-fluoro-3-(trifluoromethyl)phenyl)cyclopropane-1-carboxamido)-N-(2,6-difluoro-3-(2,2,2-trifluoroacetamido)phenyl)-3-methylbenzamide] | 50 to 100 | 50 to 100
6 | Cc1cc(NC(=O)[C@H]2[C@H](c3ccc(Cl)c(Cl)c3)C2(Cl)Cl)cc(C(=O)Nc2cc(N)c(F)cc2F)c1Cl [F1470, N-(5-Amino-2,4-difluorophenyl)-2-chloro-5-((1R,3R)-2,2-dichloro-3-(3,4-dichlorophenyl)cyclopropane-1-carboxamido)-3-methylbenzamide] | 50 to 100 | 50 to 100
7 | O=C(Nc1ccc(F)c(NC(=O)C(F)(F)c2ccccc2)c1F)c1cc(NC(=O)[C@H]2[C@H](c3ccc(Cl)c(Cl)c3)C2(Cl)Cl)ccc1Cl [F1471, 2-Chloro-5-((1R,3R)-2,2-dichloro-3-(3,4-dichlorophenyl)cyclopropane-1-carboxamido)-N-(3-(2,2-difluoro-2-phenylacetamido)-2,4-difluorophenyl)benzamide] | 50 to 100 | 50 to 100
8 | CCC(=O)Nc1c(F)ccc(NC(=O)c2cc(NC(=O)[C@H]3[C@H](c4ccc(Cl)c(Cl)c4)C3(Cl)Cl)ccc2Cl)c1F [F1472, 2-Chloro-5-((1R,3R)-2,2-dichloro-3-(3,4-dichlorophenyl)cyclopropane-1-carboxamido)-N-(2,4-difluoro-3-propionamidophenyl)benzamide] | 50 to 100 | 50 to 100
9 | CCOC(=O)Nc1c(F)ccc(NC(=O)c2cc(NC(=O)[C@H]3[C@H](c4ccc(Cl)c(Cl)c4)C3(Cl)Cl)ccc2Cl)c1F [F1476, Ethyl (3-(2-chloro-5-((1R,3R)-2,2-dichloro-3-(3,4-dichlorophenyl)cyclopropane-1-carboxamido)benzamido)-2,6-difluorophenyl)carbamate] | 50 to 100 | 50 to 100
